Measured values published in US9365508B2, “Aroyl thiourea derivatives” (University Court of the University of St Andrews, priority 2009, dated 2016).
Where a name gives a salt, the structure may show the parent alone.

Tests used:
3T3L1 cells = assay: Adipocyte differentiation assay (ORO red lipid staining); type: cell-based, mouse; conditions: 10 μM compound, 3T3L1 cells in the 8 media, in duplicate, versus controls with and without DMSO
Experimental: Adipocyte Differentiation Assay
3T3L1 cells (i.e. mouse fibroblasts that differentiate into adipocytes in so-called differentiation medium) were treated in a low glucose differentiation medium (as described by F Wang and Q Tong (Molecular Biology of the Cell, 20, 2009, 801-808) with either (i) a normal growth medium (DMEM), (ii) a low glucose differentiation medium containing ciglitazone, d-biotin, dexamethasone, IBMX, insulin and L-thyroxine, or a (iii) a low glucose differentiation medium as per (ii) but lacking one of the components (i.e 6 different media each comprising five components selected from ciglitazone, d-biotin, dexamethasone, IBMX, insulin and L-thyroxine). Cells were stained with ORO red to detect lipid.
The same differentiation assays with each of the 8 differentiation media were then repeated but with addition of DMSO solvent and also 10 μM of compound D3 (5-dimethylamino-pentanoic acid {4-[3-(3,5-dichloro-4-methoxy-benzoyl)-thioureido]-phenyl}-amide hydrochloride) in duplicate.

SIRT2 = SIRT2 (Homo sapiens (Human), UniProt Q8IXJ6); assay: SIRT2 inhibition assay (Fluor de Lys fluorescence-based assay kit); type: biochemical; conditions: human recombinant enzyme; for inhibition at 60 µM: 60 μM compound, read-out: SirT2 (% inhib at 60 μM)
Experimental: (§1) SIRT1 and SIRT2 Inhibition Assays
(§2) All compounds were tested for inhibition of SIRT1 and SIRT2 using human recombinant enzymes available in the Fluor de Lys fluorescence-based assay kit (BIOMOL, AK555, AK556). All other required reagents were provided in the kit which was stored at −78° C. Before use, small aliquots of each enzyme (2-3 μL) were prepared, snap frozen in liquid nitrogen and stored at −78° C. Fresh dilutions of compounds were prepared in DMSO and further diluted in assay buffer. NAD^+ (12.5 […] at 4 mM) and Fluor de Lys SIRT1 or SIRT2 (12.5 μL at 100 μM) in assay buffer were added to a white 96 well plate, followed by compound (10 μL) and lastly enzyme (15 μL, 0.07 U/μL or SIRT1 and 0.3 U/μL for SIRT2). After incubation for 1 h at 37° C. a developer solution (50 μL) was added to each reaction. The developer solution contained 38 μL buffer, 10 μL developer and 2 μL nicotinamide (50 mM) per reaction. The plate was then incubated for 45 min at rt and then read using a Spectra Max Gemini fluorimeter with an excitation wavelength of 355 nm and an emission wavelength of 460 nm. SigmaPlot software was used to generate fit curves for raw plots and the equation for each curve was used to calculate IC50 data.

SIRT1 = SIRT1 (Homo sapiens (Human), UniProt Q96EB6); assay: SIRT1 inhibition assay (Fluor de Lys fluorescence-based assay kit); type: biochemical; conditions: human recombinant enzyme; for inhibition at 60 µM: 60 μM compound, read-out: SirT1 (% inhib at 60 μM)
Experimental: as §1, §2

Sequence of SIRT1 (Q96EB6 whole entry): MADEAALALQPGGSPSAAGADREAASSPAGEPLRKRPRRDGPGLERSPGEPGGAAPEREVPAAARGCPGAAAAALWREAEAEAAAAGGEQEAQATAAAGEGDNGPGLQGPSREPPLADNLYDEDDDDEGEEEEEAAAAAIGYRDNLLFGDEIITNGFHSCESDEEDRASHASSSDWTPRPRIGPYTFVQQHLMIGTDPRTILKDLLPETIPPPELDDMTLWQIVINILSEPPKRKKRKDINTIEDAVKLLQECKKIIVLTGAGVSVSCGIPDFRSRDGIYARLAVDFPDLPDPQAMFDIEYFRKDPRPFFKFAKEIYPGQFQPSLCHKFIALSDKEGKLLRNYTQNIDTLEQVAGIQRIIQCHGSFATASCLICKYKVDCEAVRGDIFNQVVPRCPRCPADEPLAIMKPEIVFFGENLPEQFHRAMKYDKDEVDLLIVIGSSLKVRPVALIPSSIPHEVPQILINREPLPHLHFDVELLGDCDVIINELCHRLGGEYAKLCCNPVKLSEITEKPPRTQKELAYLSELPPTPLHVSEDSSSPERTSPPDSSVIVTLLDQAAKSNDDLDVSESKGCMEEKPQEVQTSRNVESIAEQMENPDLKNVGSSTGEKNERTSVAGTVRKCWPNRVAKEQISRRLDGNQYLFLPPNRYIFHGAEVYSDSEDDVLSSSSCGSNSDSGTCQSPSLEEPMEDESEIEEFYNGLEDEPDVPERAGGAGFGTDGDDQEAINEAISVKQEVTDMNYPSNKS
Sequence of SIRT2 (Q8IXJ6 whole entry): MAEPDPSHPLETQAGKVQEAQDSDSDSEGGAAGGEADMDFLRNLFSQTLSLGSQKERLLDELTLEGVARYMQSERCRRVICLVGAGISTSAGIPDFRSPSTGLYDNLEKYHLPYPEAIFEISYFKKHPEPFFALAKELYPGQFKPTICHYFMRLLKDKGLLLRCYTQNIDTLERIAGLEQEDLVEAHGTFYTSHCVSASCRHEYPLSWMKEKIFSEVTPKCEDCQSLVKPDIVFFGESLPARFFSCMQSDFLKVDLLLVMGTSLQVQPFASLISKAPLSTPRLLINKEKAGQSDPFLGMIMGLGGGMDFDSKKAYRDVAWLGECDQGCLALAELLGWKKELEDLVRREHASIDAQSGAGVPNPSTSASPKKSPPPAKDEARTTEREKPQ

With COc1c(Cl)cc(C(=O)NC(=S)Nc2ccc(NC(=O)CCCCN(C)C)cc2)cc1Cl.Cl [Compound D3, 5-Dimethylamino-pentanoic acid {4-[3-(3,5-dichloro-4-methoxy-benzoyl)-thioureido]-phenyl}-amide hydrochloride] the “oro red staining (adipogenesis)” value (3T3L1 cells) was “increases the oro red staining”, the inhibition at 60 µM (SIRT2) was 80.3% and the IC50 (SIRT2) was 10.7 ± 1.6 µM. For the same molecule, the inhibition at 60 µM (SIRT1) was 35% and the IC50 (SIRT1) was 62.5 ± 3.6 µM.
In the case of COc1c(Br)cc(C(=O)NC(=S)Nc2ccc(NC(=O)CCCCN(C)C)cc2)cc1Br [Compound 383a, 5-Dimethylamino-pentanoic acid {4-[3-(3,5-dibromo-4-methoxy-benzoyl)-thioureido]-phenyl}-amide hydrochloride], the IC50 (SIRT2) is reported as 14 ± 1.7 µM and the IC50 (SIRT1) is reported as 47.2 ± 0.9 µM.
With CC(C)c1ccc(C(=O)NC(=S)Nc2ccc(NC(=O)CCCCN(C)C)cc2)cc1 [Compound 331a, 5-Dimethylamino-pentanoic acid {4-[3-(4-isopropyl-benzoyl)-thioureido]-phenyl}-amide hydrochloride] the inhibition at 60 µM (SIRT2) was 78.4%, the IC50 (SIRT2) was 32.5 ± 0.07 µM and the inhibition at 60 µM (SIRT1) was 52.9%. The IC50 (SIRT1) was 64.8 ± 3.8 µM.
CCCCCc1ccc(C(=O)NC(=S)Nc2ccc(NC(=O)CCCCN(C)C)cc2)cc1 [Compound 345a, 5-Dimethylamino-pentanoic acid {4-[3-(4-pentyl-benzoyl)-thioureido]-phenyl}-amide hydrochloride] was tested, and the inhibition at 60 µM (SIRT2) was 85.4% and the inhibition at 60 µM (SIRT1) was 73%.
Work on Cc1ccc(C(=O)NC(=S)Nc2ccc(NC(=O)CCCCN(C)C)cc2)cc1Br [Compound 330a, 5-Dimethylamino-pentanoic acid {4-[3-(3-bromo-4-methyl-benzoyl)-thioureido]-phenyl}-amide hydrochloride] yielded an inhibition at 60 µM (SIRT2) of 80.2%, an IC50 (SIRT2) of 31.9 ± 1.6 µM and an inhibition at 60 µM (SIRT1) of 33%. It also gave an IC50 (SIRT1) of 43.9 ± 7.3 µM.
